Assay results from patent US20170143748A1, “ANTI-TUMOR PHARMACEUTICAL APPLICATION OF PENTACYCLIC TRITERPENE SAPONIN COMPOUNDS OF SZECHUAN MELANDIUM ROOT” (priority 2014, published 2017).
Like-named read-outs stand apart in the source and are kept apart here.

Columns and labels:
Assay type in all cases: cell-based, Human
[1] = test system: HepG2; test: Inhibitory activity and IC50 to HepG2 at different time of treatment (MTT, Example 4); settings: for IC50 / inhibition at 5 µg/mL / inhibition at 10 µg/mL / inhibition at 20 µg/mL / inhibition at 40 µg/mL / inhibition at 80 µg/mL: Homo sapiens; for IC50: read-out: IC50 to HepG2
Experimental: Human resources hepatoma cell line HepG2 was provided by Cancer Hospital, Chinese Academy of Medical Sciences. […] Cells were passaged every 2 or 3 days, and all the experiments were carried out on exponentially growing cells.
Cells were harvested in good growth status and cell suspension was prepared with 2×10^4 cells/mL, added 100 μL per well of 96-well plates, and cultured for 24 h in the incubator. 100 μL liquid medium with no cell was added per well as blank group.
3 plates were used as parallel test to culture cells at different period.
Before medication, supernatant of each well was removed and fresh 1640 medium was added, 180 μL per well. […] Wells of blank and model groups were added with 0.5% DMSO, 20 μL per well. After finished adding drugs, cells were incubated for 24 and 48 h respectively. At the end of incubation, 20 μL MTT was added per well […]. The supernatant was removed carefully and 150 μL DMSO was added per well. After shaken for 10 mins, the absorbance was read at 490 nm and the inhibition rate was calculated with the formula below.
(§1) Inhibition rate=[(ODmodel−ODblank)−(ODdrugs−ODblank)]/(ODmodel−ODblank)×100%
IC50 was calculated with Bliss method.
(§2) The MTT experiment was repeated three times.

[2] = test system: A875; test: MTT inhibition of tumor cells in vitro (Example 3); settings: Homo sapiens, A875, 40 μg/mL, 48 hours, read-out: Inhibition rate, A875
Experimental: (§3) Human resources tumor cell line […], […], HT29, MCF-7 and A875 were provided by Cancer Hospital, Chinese Academy of Medical Sciences.
(§4) Cells were passaged every 2 or 3 days, and all the experiments were carried out on exponentially growing cells.
(§5) All cells were cultured in a humidified atmosphere (5% CO2 and […]), and passaged every 2 or 3 days. Cells were harvested on exponentially growing phase, and cell suspension was prepared with 2×10^4 cells/mL, added with 100 μL per well of 96-well plates, and cultured for 24 h in incubator. 100 μL medium without cells was added per well as blank group.
(§6) Compound (1), (2), (3), (4), (7) or (8) was dissolved in DMSO respectively, and diluted with 1640 medium at a final concentration of 400 μg/mL, so as to that of the Cisplatin. Cells were divided into 9 groups, they were blank group, model group, Compound (1), (2), (3), (4), (7) and (8) groups, and Cisplatin group as the positive one, 6 wells per group.
(§7) Before drug administration, supernatant of each well was removed and fresh 1640 medium was added, 180 μL per well. Compounds and Cisplatin were added with 20 μL per well respectively at a final concentration of 40 μg/mL. Wells of blank and model groups were added with 0.5% DMSO, 20 μL per well. 48 hours later, 20 μL MTT was added per well and continued to culture for 4 hours, then the supernatant was replaced carefully and DMSO was added with 150 μL per well to end the experiment. The 96-well plates were shaken for 10 mins and read the absorbance at 490 nm. The Inhibition rate was calculated.
as §1, §2

[3] = test system: HT29; test: MTT inhibition of tumor cells in vitro (Example 3); settings: Homo sapiens, HT-29, 48 h, 40 μg/mL, read-out: Inhibition rate, HT29
Experimental: as §3, §4, §5, §6, §7, §1, §2

[4] = test system: BGC823; test: MTT inhibition of tumor cells in vitro (Example 3); settings: Homo sapiens, BGC-823, 48 h, 40 μg/mL, read-out: Inhibition rate, BGC823
Experimental: as §3, §4, §5, §6, §7, §1, §2

[5] = test system: MCF-7; test: MTT inhibition of tumor cells in vitro (Example 3); settings: Homo sapiens, MCF7, 40 μg/mL, 48 hours, read-out: Inhibition rate, MCF-7
Experimental: as §3, §4, §5, §6, §7, §1, §2

[6] = test system: HepG2; test: MTT inhibition of tumor cells in vitro (Example 3); settings: Homo sapiens, HepG2, 48 h, 40 μg/mL, read-out: Inhibition rate, HepG2

COC(=O)C1CC(O[C@H]2CC[C@]3(C)[C@H]4C=CC5[C@@H]6CC(C)(C)CC[C@]6(C(=O)OC6OC(C)C(OC(=O)/C=C/c7ccc(C)cc7)C(OC(C)=O)C6OC6CC(C)C(O)C(O)C6O)[C@H](O)C[C@@]5(C)[C@]4(C)CC[C@H]3[C@]2(C)C=O)C(OC2OC(CO)C(O)C(O)C2O)C(OC2OCC(O)C(O)C2O)C1O (stereo partly drawn) [Compound (2), sinocrassuloside VII]
highest inhibition rate ([1]; HepG2, 20-80 μg/mL): above 99% | IC50 ([1]; HepG2, 24 h): 5.25 µM | inhibition at 5 µg/mL ([1]; HepG2, 24 h, read-out: Inhibition Rate, HepG2, 5 μg/ml, 24 h): 13.4 ± 5.76% | inhibition at 10 µg/mL ([1]; HepG2, 24 h, read-out: Inhibition Rate, HepG2, 10 μg/ml, 24 h): > 80% | inhibition at 20 µg/mL ([1]; HepG2, 24 h, read-out: Inhibition Rate, HepG2, 20 μg/ml, 24 h): 92.7 ± 2.43% | inhibition at 40 µg/mL ([1]; HepG2, 24 h, read-out: Inhibition Rate, HepG2, 40 μg/ml, 24 h): 90 ± 2.41% | inhibition at 80 µg/mL ([1]; HepG2, 24 h, read-out: Inhibition Rate, HepG2, 80 μg/ml, 24 h): 94.6 ± 2.59% | IC50 ([1]; HepG2, 48 h): 4.56 µM | inhibition at 5 µg/mL ([1]; HepG2, 48 h, read-out: Inhibition Rate, HepG2, 5 μg/ml, 48 h): 16.6 ± 8% | inhibition at 10 µg/mL ([1]; HepG2, 48 h, read-out: Inhibition Rate, HepG2, 10 μg/ml, 48 h): > 80% | inhibition at 20 µg/mL ([1]; HepG2, 48 h, read-out: Inhibition Rate, HepG2, 20 μg/ml, 48 h): 99.47 ± 0.56% | inhibition at 40 µg/mL ([1]; HepG2, 48 h, read-out: Inhibition Rate, HepG2, 40 μg/ml, 48 h): 98.4 ± 1% | inhibition at 80 µg/mL ([1]; HepG2, 48 h, read-out: Inhibition Rate, HepG2, 80 μg/ml, 48 h): 98.89 ± 0.68% | inhibition at 40 µg/mL [2]: 77.5 ± 9.94% | inhibition at 40 µg/mL [3]: > 90% | inhibition at 40 µg/mL [4]: > 90% | inhibition at 40 µg/mL [5]: 91 ± 8.68% | inhibition at 40 µg/mL [6]: > 90%
